Where “and” joins values, the source holds several entries; their conditions need not be identical. Equal values may be shown once.
Assays:
Sprague-Dawley rats = assay: Hotplate test (thermal withdrawal latency) after intrathecal injection of volatile anesthetic; format: in vivo; conditions: rat; for Thermal withdrawal latency, Average / Thermal withdrawal latency, Group Average: 2 microliters intrathecal; for Thermal withdrawal latency, Average: average per rat; for Thermal withdrawal latency, Group Average: group of four rats, saline control 8.33 seconds; for thermal latency time (analgesic effect): intrathecally delivered dose of 2 microliters
Experimental: This study was designed to evaluate efficacy of direct intrathecal injection of volatile anesthetic in reducing pain and providing analgesia. The study was conducted over a one (1) month period using the volatile anesthetics isoflurane and sevoflurane injected directly intrathecally or dissolved in saline as shown in the studies below. The subject animal used was the rat, since the rat has a well-established model of pain/analgesia testing. In particular, Sprague-Dawley rats weighing over 350 gm were used. The rats were anesthetized with pentobarbital (50 mg/kg), and the anesthetic depth of the animals was determined by corneal reflex and paw withdrawal reflex to a noxious stimulus.
[…]. A midline surgical dissection of the posterior neck muscles was performed to obtain access to the occipito-atlantoid membrane. This membrane was identified and then dissected. A sterile polyethylene catheter was introduced in the subarachnoid space until the lumbar enlargement of the spinal cord (approximately 7-8 cm measured in each animal). The surgical wound was closed, first suturing the neck muscles with 3-0 silk sutures and then closing the skin incision with staples.
After the surgery, the rats were moved to their cages and a radiant lamp was placed over the cages so that the rats would not undergo anesthetic-induced hypothermia. The rats were continuously monitored from the end of the surgery until they were fully awake. Rats showing any motor impairment after surgery were euthanized.
On the fifth day after surgery, those rats without wound infection or motor dysfunction were transported to the pain behavioral lab to enter the intrathecal study with volatile anesthetics. Twelve rats were selected for the study. All these rats had intrathecal catheters. Isoflurane (1-chloro-2,2,2-trifluoroethyl difluoromethyl ether) and sevoflurane (fluoromethyl 2,2,2-trifluoro-1-(trifluoromethyl)ethyl ether) were used as the halogenated ether compounds. Both of these are halogenated volatile anesthetics, with isoflurane manufactured by Baxter and sevoflurane manufactured by Abbott Laboratories. The 12 rats were divided into 3 groups of four rats each for study A and B.
In the second group, 2 microliters of isoflurane was injected via the intrathecal catheter into each rat. This catheter was also flushed with preservative-free normal saline. This group was then subjected to pain behavioral testing.
In the third group, 2 microliters of sevoflurane was injected via the intrathecal catheter into each rat. This catheter was also flushed with preservative-free normal saline. This group was then subjected to pain behavioral testing.
A “hotplate” behavioral test was used to evaluate pain perception and analgesia. The pain behavioral testing model used in these studies have been well established by Tony Yaksh. (See, for example Chaplan et al., 1994, J. Neurosci. Methods, 53:55-63; Yaksh et al., 2001, J. Appl. Physiol., 90:2386-2402; Kim and Chung, 1992, Pain, 50:355-363.; Sorkin et al., 2001, Anesthesiology, 95:965-973). This test involves determining how quickly a rat will withdraw its hind paw in response to a noxious stimulus such as a radiant heat source placed directly underneath its paw. This time for withdrawal is known as “thermal withdrawal latency”.
Rats were transferred for testing onto a modified Hargreaves apparatus with a heated glass plate maintained at 25° C. (see Hargreaves et al., 1998, Pain, 32:77-88). A focused projection bulb below the plate was aimed at the mid-plantar surface of the paw. A photodiode-activated timer measured the withdrawal latency, and a cutoff time of 25 seconds was used to prevent tissue damage. Thermal withdrawal latency to radiant heat was measured at 5 minutes and 30 minutes after each intrathecal injection. Each paw was tested three times, and the results were averaged. The below data was collected for both the right and left hind paws: […]

rats = assay: Plantar Heat Stimulation Test after subcutaneous injection into the hindpaw; format: in vivo; conditions: rat, 100 μl subcutaneously into one hindpaw; for antinociceptive effect (paw withdrawal latency, treated vs untreated paw): cutoff 22 seconds
Experimental: Rats are assessed for response to thermal stimulation using the Plantar Heat Stimulation Test (i.e., radiant heat) (Planar Analgesia Instrument, Ugo Basile, Italy) by measuring paw withdrawal latency. 100 μl of pureform Isoflurane or 100 μl of 2% Lidocaine was injected subcutaneously into the planar surface of one hindpaw of each rat. For each rat, the untreated, contralateral hindpaw served as its own control.
After the rats acclimated for 15 minutes under acrylic boxes that allow minimal movement, a heat source was positioned beneath the mid-plantar surface of the hind paw. Withdrawal latency was defined as the period of time from the beginning of the thermal stimulation to the brisk withdrawal of the hind paw. To avoid tissue damage, a cutoff time of 22 seconds was set. Thermal stimulation was applied three times to each hind paw at an interstimulus interval of 3-5 minutes. Thermal withdrawal latency was assessed before and after the treatment. An increase in the withdrawal latency in the treated paw compared to the control paw was assessed as analgesic activity of the tested formulation.
For statistical comparison, student paired t-test analysis was used. Differences were considered significant at P<0.05 (# P<0.05 isoflurane versus control n=4; * P<0.05 lidocaine versus control n=3).

[1] = Isoflurane stability: weighing remaining isoflurane in uncapped vials over time; format: physicochemical; conditions: uncapped vial in fume hood
Experimental: In the Examples that follow, the stability of isoflurane in the described compositions was determined in two ways. First, the compositions were examined for the presence of phase separation at the macroscopic level. Secondly, isoflurane content of the compositions was determined by weighing the remaining isoflurane in the composition when they were left uncapped over time. […] The other vials received varying amounts of isoflurane. They were left uncapped in the hood. Over time, the vials were weighed to see if the isoflurane stayed in the composition or had evaporated. The amount evaporated over time in the vehicle control was subtracted from that in the isoflurane-containing composition. The pure form of isoflurane is a volatile anesthetic. In order to assess the volatility of isoflurane, two vials received the indicated amounts of pure form isoflurane. The vials were placed in the chemical fume hood and left uncapped. The vials were weighed at the indicated times to determine the amount of evaporated isoflurane. As it is shown in the table below 0.7893 g isoflurane was evaporated within 3 hours, while 3.4825 g isoflurane took approximately 8 hrs to evaporate completely. These amounts of isoflurane are similar to the amounts of isoflurane that were used to prepare the isoflurane compositions in the Examples that follow.

| time until isoflurane was evaporated ([1]; 0.7893 g pure form) [h] | time to evaporate completely ([1]; 3.4825 g pure form) | Compound | Thermal withdrawal latency, Average (Sprague-Dawley rats; 5 minutes after injection) | Thermal withdrawal latency, Group Average (Sprague-Dawley rats; 5 minutes after injection) [s] | Thermal withdrawal latency, Average (Sprague-Dawley rats; 30 minutes after injection) | thermal latency time (analgesic effect) (Sprague-Dawley rats) | duration of antinociceptive effect (rats) | antinociceptive effect (paw withdrawal latency, treated vs untreated paw) (rats) | antinociceptive effect began at (rats; time after administration) [min] | antinociceptive effect peaked at (rats; time after administration) [min] | antinociceptive effect returned to baseline levels at (rats; time after administration) [min] |
| --- | --- | --- | --- | --- | --- | --- | --- | --- | --- | --- | --- |
| – | – | FCOC(C(F)(F)F)C(F)(F)F [Sevoflurane, fluoromethyl 2,2,2-trifluoro-1-(trifluoromethyl)ethyl ether] | 14.65 s and 13.82 s and 13.14 s and 12.98 s | 13.65 | 8.61 s and 8.35 s and 8.89 s and 9.54 s | significantly increased | – | – | – | – | – |
| ≤ 3 | approximately 8 hrs | FC(F)OC(Cl)C(F)(F)F (centres unmarked) [Isoflurane, 1-chloro-2,2,2-trifluoroethyl difluoromethyl ether] | 19.25 s and 18.21 s and 18.63 s and 17.95 s | 18.51 | 9.48 s and 8.93 s and 10.52 s and 9.21 s | significantly increased | continued throughout the experiment | significant antinociceptive effect | 25 | – | – |
| – | – | CCN(CC)CC(=O)Nc1c(C)cccc1C [Lidocaine] | – | – | – | – | – | significant antinociceptive effect | 5 | 15 | 45 |
